Measurements from patent US10206394B2, “Herbicidal compounds” (Syngenta Participations AG, priority 2014, dated 2019).
Read-outs that look alike come from different tables or passages of the source.

Assays:
Experiment in all cases: Glasshouse assay for herbicidal activity (pre- and post-emergence), percentage phytotoxicity
Assay type in all cases: in vivo
Lolium perenne (LOLPE) = details: Lolium perenne, rate 250 g/ha
In short: (§1)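 Sow seed in standard soil in pots; apply test herbicide after 1 day (PRE) or about 12 days (POST). Grow on in the glasshouse, watering twice daily, cool-season species at 20/16 °C and warm-season at 24/18 °C. Score visible damage (0–100%) at 20 or 15 DAA respectively.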

Avena fatua (AVEFA) = details: Avena fatua, rate 250 g/ha
In short: as §1

[1] = system: Alopecurus myosuroides (ALOMY); details: Alopecurus myosuroides, rate 250 g/ha
In short: as §1

[2] = system: Echinochloa crus-galli (ECHCG); details: Echinochloa crus-galli, rate 250 g/ha
In short: as §1

[3] = post-emergence, 360 h, POST-emergence, visual score 15 DAA (100%=total damage, 0%=no damage), read-out: Post-emergence herbicidal activity (percentage phytotoxicity) LOLPE POST
[4] = pre-emergence, 480 h, PRE-emergence, visual score 20 DAA (100%=total damage, 0%=no damage), read-out: Pre-emergence herbicidal activity (percentage phytotoxicity) LOLPE PRE
[5] = post-emergence, 360 h, POST-emergence, visual score 15 DAA (100%=total damage, 0%=no damage), read-out: Post-emergence herbicidal activity (percentage phytotoxicity) AVEFA POST
[6] = pre-emergence, 480 h, PRE-emergence, visual score 20 DAA (100%=total damage, 0%=no damage), read-out: Pre-emergence herbicidal activity (percentage phytotoxicity) AVEFA PRE
[7] = post-emergence, 360 h, POST-emergence, visual score 15 DAA (100%=total damage, 0%=no damage), read-out: Post-emergence herbicidal activity (percentage phytotoxicity) ALOMY POST
[8] = pre-emergence, 480 h, PRE-emergence, visual score 20 DAA (100%=total damage, 0%=no damage), read-out: Pre-emergence herbicidal activity (percentage phytotoxicity) ALOMY PRE
[9] = post-emergence, 360 h, POST-emergence, visual score 15 DAA (100%=total damage, 0%=no damage), read-out: Post-emergence herbicidal activity (percentage phytotoxicity) ECHCG POST
[10] = pre-emergence, 480 h, PRE-emergence, visual score 20 DAA (100%=total damage, 0%=no damage), read-out: Pre-emergence herbicidal activity (percentage phytotoxicity) ECHCG PRE

Row | Structure (SMILES) | pest or weed control at 250 g/ha (Lolium perenne (LOLPE); [3]) | pest or weed control at 250 g/ha (Lolium perenne (LOLPE); [4]) | pest or weed control at 250 g/ha (Avena fatua (AVEFA); [5]) | pest or weed control at 250 g/ha (Avena fatua (AVEFA); [6]) | pest or weed control at 250 g/ha [1, 7] | pest or weed control at 250 g/ha [1, 8] | pest or weed control at 250 g/ha [2, 9] | pest or weed control at 250 g/ha [2, 10]
1 | Cc1cc(OCC(F)(F)F)cc(C)c1C1C(=O)CC(CC(=O)NC(C)C)C1=O (centres unmarked) [Compound B208] | 90% | 80% | 90% | 80% | 90% | 90% | 100% | 100%
2 | C=CCNC(=O)CC1CC(=O)C(c2c(C)cc(OCC(F)(F)F)cc2C)C1=O (centres unmarked) [Compound B209] | 80% | 90% | 80% | 80% | 90% | 100% | 100% | 100%
3 | Cc1cc(OCC(F)(F)F)cc(C)c1C1C(=O)CC(CC(=O)NCC2CC2)C1=O (centres unmarked) [Compound B210] | 90% | 100% | 90% | 80% | 100% | 100% | 100% | 100%
4 | CCN(C)C(=O)CC1CC(=O)C(c2c(C)cc(OCC(F)(F)F)cc2C)C1=O (centres unmarked) [Compound B211] | 90% | – | 90% | 80% | 90% | 90% | 100% | 100%
5 | Cc1cc(OCC(F)(F)F)cc(C)c1C1C(=O)CC(CC(=O)N(C)C(C)(C)C)C1=O (centres unmarked) [Compound B212] | 70% | 90% | 60% | 60% | 90% | 60% | 90% | 100%
6 | C#CCN(C)C(=O)CC1CC(=O)C(c2c(C)cc(OCC(F)(F)F)cc2C)C1=O (centres unmarked) [Compound B213] | 90% | 70% | 90% | 50% | 90% | 80% | 100% | 90%
7 | CCc1cc(OCC(F)(F)F)cc(C)c1C1C(=O)CC(CC(=O)NCc2cccc(F)c2)C1=O (centres unmarked) [Compound B214] | 100% | 90% | 100% | 90% | 100% | 100% | 100% | 100%
8 | CCc1cc(OCC(F)(F)F)cc(C)c1C1C(=O)CC(CC(=O)NCc2ccc(OC)cc2)C1=O (centres unmarked) [Compound B215] | 100% | 90% | 100% | 80% | 100% | 90% | 100% | 90%
9 | CCc1cc(OCC(F)(F)F)cc(C)c1C1C(=O)CC(CC(=O)NCc2ccc(C#N)cc2)C1=O (centres unmarked) [Compound B216] | 90% | 70% | 90% | 70% | 100% | 80% | 100% | 90%
10 | CCc1cc(OCC(F)(F)F)cc(C)c1C1C(=O)CC(CC(=O)NC(C)C)C1=O (centres unmarked) [Compound B217] | 100% | 100% | 100% | 100% | 100% | 100% | 100% | 100%
11 | C=CCNC(=O)CC1CC(=O)C(c2c(C)cc(OCC(F)(F)F)cc2CC)C1=O (centres unmarked) [Compound B218] | 100% | 100% | 100% | 90% | 100% | 100% | 100% | 100%
12 | CCc1cc(OCC(F)(F)F)cc(C)c1C1C(=O)CC(CC(=O)NCC2CC2)C1=O (centres unmarked) [Compound B219] | 100% | 100% | 100% | 90% | 100% | 100% | 100% | 90%
13 | CCc1cc(OCC(F)(F)F)cc(C)c1C1C(=O)CC(CC(=O)N(C)CC)C1=O (centres unmarked) [Compound B220] | 100% | 100% | 100% | 90% | 100% | 100% | 100% | 100%
14 | CCc1cc(OCC(F)(F)F)cc(C)c1C1C(=O)CC(CC(=O)N(C)C(C)(C)C)C1=O (centres unmarked) [Compound B221] | 100% | 100% | 100% | 100% | 100% | 100% | 100% | 100%
15 | C#CCN(C)C(=O)CC1CC(=O)C(c2c(C)cc(OCC(F)(F)F)cc2CC)C1=O (centres unmarked) [Compound B222] | 100% | 100% | 100% | 90% | 100% | 100% | 100% | 100%
16 | Cc1cc(-n2cc(Cl)cn2)cc(C)c1C1C(=O)CC(CC(=O)NCc2cccc(F)c2)C1=O (centres unmarked) [Compound B223] | 80% | 80% | 100% | 70% | 90% | 90% | 100% | 90%
17 | COc1ccc(CNC(=O)CC2CC(=O)C(c3c(C)cc(-n4cc(Cl)cn4)cc3C)C2=O)cc1 (centres unmarked) [Compound B224] | 80% | 70% | 80% | 50% | 80% | 80% | 90% | 70%
18 | Cc1cc(-n2cc(Cl)cn2)cc(C)c1C1C(=O)CC(CC(=O)NCc2ccc(C#N)cc2)C1=O (centres unmarked) [Compound B225] | 60% | 0% | 70% | 0% | 60% | 0% | 70% | 0%
19 | C=CCNC(=O)CC1CC(=O)C(c2c(C)cc(-n3cc(Cl)cn3)cc2C)C1=O (centres unmarked) [Compound B226] | 90% | 80% | 90% | 90% | 100% | 100% | 100% | 100%
20 | Cc1cc(-n2cc(Cl)cn2)cc(C)c1C1C(=O)CC(CC(=O)NCC2CC2)C1=O (centres unmarked) [Compound B227] | 90% | 80% | 100% | 80% | 100% | 80% | 100% | 80%
21 | CCN(C)C(=O)CC1CC(=O)C(c2c(C)cc(-n3cc(Cl)cn3)cc2C)C1=O (centres unmarked) [Compound B228] | 100% | 100% | 100% | 90% | 100% | 100% | 100% | 90%
